Legend:
[1] = test system: Human epidermal keratinocyte (HEK); assay: Cytotoxicity test (cell survival), MTT assay, HEK; assay type: cell-based; conditions: 24 hours; for MTT absorbance (OD): 570 nm; for Cell survival Avg (%) ± SD (%): Table 3
Description: (§1) 3. Cytotoxicity Test (Cell Survival Test)
(§2) Cytotoxicity was conducted through an MTT assay (Chemicon, Serologicals Corporation, USA) as follows.
(§3) Cells were seeded at a density of 3×10^4 cells/well in 96-well plates (Nunc Do, Denmark).
(§4) When the cells were at a confluence of about 60˜70%, 24 hours after seeding, the media was exchanged for 100 μl of fresh, serum-free media containing various respective concentrations of ALA or ALA-ester, after which the cells were incubated for an additional 24 hours.
(§5) An MTT solution (0.5 mg/mL) was added in an amount of […] to each well, followed by incubation for 4 hours to form formazan crystals. A color-developing solution (isopropanol with 0.04 N HCl) was added in an amount of […] per well to solubilize the formazan crystals.
(§6) The plates were measured for absorbance at 570 nm using an ELISA reader (EMAX, Molecular Device, USA).
(1) Human Epidermal Keratinocyte (HEK)
Cell survival of the human epidermal keratinocytes treated with ALA esters of the present invention and with ALA was compared. The results are summarized in Tables 1 and 2, which are represented in different manners depending on the measurements.

[2] = test system: Human dermal fibroblast (hF); assay: Cytotoxicity test (cell survival), MTT assay, hF; assay type: cell-based; conditions: 24 hours
Description: as §1, §2, §3, §4, §5, §6
(2) Human Dermal Fibroblast (hF)

[3] = test system: Squamous cell carcinoma (A431); assay: Cytotoxicity test (cell survival), MTT assay, A431; assay type: cell-based; conditions: 24 hours
Description: as §1, §2, §3, §4, §5, §6
(3) Squamous Cell Carcinoma (A431)

[4] = test system: Malignant melanoma (TMX 13); assay: Cytotoxicity test (cell survival), MTT assay, TXM 13; assay type: cell-based; conditions: 24 hours
Description: as §1, §2, §3, §4, §5, §6
(4) Malignant Melanoma (TMX 13)

[5] = test system: all of the cells except for HEK (hF, A431, TXM 13); assay: Cytotoxicity test (MTT), summary for all of the cells except for HEK; assay type: cell-based; conditions: text summary of the tables
Description: as §1, §2, §3, §4, §5, §6

[6] = test system: human epithelium keratocyte (HEK), human dermal fibroblast (hF), squamous cell carcinoma (A431), malignant melanoma (TXM13); assay: Fluorescence spectroscopy of PpIX synthesis in all cell lines (FIG. 2); assay type: cell-based; conditions: range from 0.01 to 1 mM, 4 hours incubation
Description: 4. Fluorescence Spectroscopy
The synthesis of PpIX, induced by ALA and unsaturated alkyl esters of ALA in cells and skin tissues, was quantified using fluorescence spectroscopy.
The intensity of PpIX was measured on a fluorescence spectrophotometer (Uvikon, model 943) with excitation at 408 nm.
Each cell line was plated at a density of 2×10^5 cells in a 10 cm^2-dish (Falcon), and when the cells reached a confluent state of 70˜80%, serum-free media containing various concentrations (0.001˜1 mM) of ALA or ALA esters was added to the cells, followed by incubation for 4 hours.
After being washed once with PBS, the cells were detached with a 50% methanol solution containing 1M […] (HClO4) and scraped off using a Costar cell scraper.
The cells thus harvested were incubated for 5 min and centrifuged.
The fluorescence of the supernatant thus obtained was determined using a spectrofluorometer with excitation at 405 nm and emission at 605 nm.
The results are graphed in FIGS. 1 and 2.

[7] = test system: human epidermal keratinocyte (HEK), human dermal fibroblast (hF), squamous cell carcinoma (A431), malignant melanoma (TXM 13); assay: Fluorescence microscopy of PpIX in cell lines (FIG. 5); assay type: cell-based; conditions: normal and cancer cell lines, fluorescence microscope
Description: 5. Observation Under Fluorescence Microscope
Each cell line and ICR mouse skin tissue were treated with the ALA esters of the present invention, and the regions where PpxIX was expressed were observed under a fluorescence microscope.
The normal cell lines, human epidermal keratinocytes (HEK) and human dermal fibroblasts (hF) and the cancer cell lines squamous cell carcinoma A431 and malignant melanoma TXM13 were treated with […] of the ALA esters of the present invention or ALA, followed by monitoring the fluorescence of the synthesized PpIX under a fluorescence microscope.

[8] = test system: Each cell line; assay: Apoptosis and cell death by Annexin V-FITC/PI flow cytometry after visible light (FIG. 8); assay type: cell-based
Description: 6. Research into Apoptosis and Cell Death A. Cell Line Each cell line cultured in 6-well plates was treated with ALA or ALA esters of the present invention, irradiated with visible light from an LED, and stained with Annexin V-FITC and PI (Annexin V-FITC Apoptosis detection Kit, BD) before the measurement of apoptosis using flow cytometry (FACSCalibur, BD, USA).

[9] = test system: skin of ICR mice (epidermis, sebaceous gland); assay: Cell death in skin tissue after ointment and LED irradiation, H&E (FIGS. 9, 10); assay type: in vivo
Description: Ointments comprising ALA or the ALA esters of the present invention at various concentrations (5˜15%) were applied in a predetermined amount ([…]) to the back of shaved ICR mice.
1 and 4 hours after the application, the back was irradiated with LED visible light (dose 25 J/cm^2).
24, 48 and 72 hours after the irradiation, skin samples were taken from the back of the mice, stained with hematoxylin-eosin (H&E) and observed for cell death.

In the case of `NCC(=O)CCC(=O)O` [ALA, 5-Aminolevulinic acid], the “MTT absorbance (OD)” value ([1]; 0.01 mM) is reported as 3.428 OD, the “Cell survival Avg (%) ± SD (%)” value ([1]; 0.01 mM) is reported as 131.83 ± 0.9% and the “MTT absorbance (OD)” value ([1]; 0.05 mM) is reported as 3.318 OD. The “Cell survival Avg (%) ± SD (%)” value ([1]; 0.05 mM) was 112.32 ± 0.7%, the “MTT absorbance (OD)” value ([1]; 0.1 mM) was 3.457 OD and the “Cell survival Avg (%) ± SD (%)” value ([1]; 0.1 mM) was 132.21 ± 0.35%. For the same molecule, the “MTT absorbance (OD)” value ([1]; 0.5 mM) was 3.285 OD, the “Cell survival Avg (%) ± SD (%)” value ([1]; 0.5 mM) was 103.43 ± 0.15% and the “MTT absorbance (OD)” value ([1]; 1 mM) was 2.802 OD. For the same molecule, the “Cell survival Avg (%) ± SD (%)” value ([1]; 1 mM) was 100.94 ± 6.16%, the “MTT absorbance (OD)” value ([1]; 2 mM) was 2.179 OD and the “Cell survival Avg (%) ± SD (%)” value ([1]; 2 mM) was 84.9 ± 5.12%. For the same molecule, the “MTT absorbance (OD)” value ([1]; 5 mM) was 1.659 OD, the activity at 10 µM ([1]; Homo sapiens, HEK001, 0.01 mM, Table 2, read-out: Cell survival (% of control C, in brackets)) was 97.6% and the activity at 2000 µM ([1]; Homo sapiens, HEK2, 2 mM, Table 2, read-out: Cell survival (% of control C, in brackets)) was 62.1%. For the same molecule, the activity at 50 µM ([1]; Homo sapiens, Keratinocyte, 0.05 mM, Table 2, read-out: Cell survival (% of control C, in brackets)) was 94.5%, the activity at 100 µM ([1]; Homo sapiens, Keratinocyte, 0.1 mM, Table 2, read-out: Cell survival (% of control C, in brackets)) was 98.5% and the activity at 500 µM ([1]; Homo sapiens, Keratinocyte, 0.5 mM, Table 2, read-out: Cell survival (% of control C, in brackets)) was 92.8%. The activity at 1000 µM ([1]; Homo sapiens, Keratinocyte, 1 mM, Table 2, read-out: Cell survival (% of control C, in brackets)) was 79.7%, the activity at 5000 µM ([1]; Homo sapiens, Keratinocyte, 5 mM, Table 2, read-out: Cell survival (% of control C, in brackets)) was 47.2% and the “Cell survival Avg (%) ± SD (%)” value ([2]; 0.01 mM) was 109.74 ± 11.55%. The “Cell survival Avg (%) ± SD (%)” value ([2]; 0.05 mM) was 125.18 ± 14.08%, the “Cell survival Avg (%) ± SD (%)” value ([2]; 0.1 mM) was 125.27 ± 16.1% and the “Cell survival Avg (%) ± SD (%)” value ([2]; 0.5 mM) was 95.218 ± 9.47%. The “Cell survival Avg (%) ± SD (%)” value ([2]; 1 mM) was 99.89 ± 18.3%, the “Cell survival Avg (%) ± SD (%)” value ([2]; 2 mM) was 97.66 ± 9.45% and the “Cell survival Avg (%) ± SD (%)” value ([3]; A431, 0.01 mM) was 102.99 ± 0.71%. For the same molecule, the “Cell survival Avg (%) ± SD (%)” value ([3]; A431, 0.05 mM) was 104.98 ± 0.35%, the “Cell survival Avg (%) ± SD (%)” value ([3]; A431, 0.1 mM) was 106.79 ± 0.15% and the “Cell survival Avg (%) ± SD (%)” value ([3]; A431, 0.5 mM) was 81.6 ± 6.16%. For the same molecule, the “Cell survival Avg (%) ± SD (%)” value ([3]; A431, 1 mM) was 84.17 ± 5.12%, the “Cell survival Avg (%) ± SD (%)” value ([3]; A431, 2 mM) was 82.63 ± 2.44% and the “Cell survival Avg ± SD (%)” value ([4]; TXM 13, 0.01 mM) was 100 ± 10.22%. The “Cell survival Avg ± SD (%)” value ([4]; TXM 13, 0.05 mM) was 93.12 ± 5.82%, the “Cell survival Avg ± SD (%)” value ([4]; TXM 13, 0.1 mM) was 86.66 ± 6.95% and the “Cell survival Avg ± SD (%)” value ([4]; TXM 13, 0.5 mM) was 83.75 ± 9.57%. For the same molecule, the “Cell survival Avg ± SD (%)” value ([4]; TXM 13, 1 mM) was 89.91 ± 6.33%, the “Cell survival Avg ± SD (%)” value ([4]; TXM 13, 2 mM) was 93.6 ± 5.13% and the Cell survival [5] was no less than 70%. The “PpIX synthesis, dose dependence” value [6] was “increase in a dose-dependent manner”, the “PpIX fluorescence in cytoplasm” value [7] was “can induce the synthesis of PpIX in both normal and cancer cell lines” and the “Photo-induced apoptosis (Annexin V/PI)” value ([8]; 1 mM, then irradiation 5-20 J/cm^2, FIGS. 8C and D) was “induced the cells to undergo apoptosis (Annexin V+/PI−) or the late stage of apoptosis (Annexin V+/PI+)”. The “Cell survival (flow cytometry)” value ([8]; treated but with no irradiation with visible light, FIGS. 8A and B) was no less than 85%, the “Epidermis histology (H&E) after irradiation” value ([9]; 24 hours after visible light 25 J/cm^2, FIG. 9A) was “apoptosis or necrosis of the epidermis” and the “Sebaceous gland morphology after irradiation” value ([9]; 24 hours after visible light 25 J/cm^2, FIG. 10) was “destroyed partially or wholly”.
